Literature values as cited in article PMC4411097, “Pachymic Acid Inhibits Growth and Induces Apoptosis of Pancreatic Cancer In Vitro and In Vivo by Targeting ER Stress” (PLoS ONE, 2015).

Parameters: method as in PMID 22213174
Conditions: rats fed by P. cocos; cited from earlier work

Structure (SMILES): C=C(CC[C@@H](C(=O)O)[C@H]1[C@H](O)C[C@@]2(C)C3=C(CC[C@]12C)[C@@]1(C)CC[C@H](OC(C)=O)C(C)(C)[C@@H]1CC3)C(C)C [PA, Pachymic acid]
- Presence in urine and plasma: detectable
